# PubChem BioAssay (NCI)
#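 Exposure lasted 48 hours, with cells grown in 96-well plates and compounds tested at five concentrations. Here, GI50 denotes the concentration required for 50% inhibition of growth. TGI marks complete inhibition of growth.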 Where a SMILES comes first, the peptide text is derived from it. [ ]: non-standard residue; d: D form. ξ: configuration not given here. ξThz(5,5-Me2) = CC1(C)SCNC1C(=O)O
# How the values were obtained:
# Test in all cases: NCI-60 cell line screen, 48 h
# OVCAR-5 ovarian = test system: OVCAR-5 ovarian
# MOLT-4 leukemia = test system: MOLT-4 leukemia
# TK-10 renal = test system: TK-10 renal
# MDA-MB-435 = test system: MDA-MB-435
# SNB-19 CNS = test system: SNB-19 CNS
# NCI-H460 lung = test system: NCI-H460 lung
# DU-145 prostate = test system: DU-145 prostate
# CAKI-1 renal = test system: CAKI-1 renal
# SK-OV-3 ovarian = test system: SK-OV-3 ovarian
# RXF 393 renal = test system: RXF 393 renal
# M14 melanoma = test system: M14 melanoma
# U251 CNS = test system: U251 CNS
# CCRF-CEM leukemia = test system: CCRF-CEM leukemia
# OVCAR-8 ovarian = test system: OVCAR-8 ovarian
# HCC-2998 colon = test system: HCC-2998 colon
# SF-295 CNS = test system: SF-295 CNS
# RPMI-8226 leukemia = test system: RPMI-8226 leukemia
# NCI-H23 lung = test system: NCI-H23 lung
# A498 renal = test system: A498 renal
# SN12C renal = test system: SN12C renal
# MALME-3M melanoma = test system: MALME-3M melanoma
# BT-549 breast = test system: BT-549 breast
# SW-620 colon = test system: SW-620 colon
# MCF7 breast = test system: MCF7 breast
# ACHN renal = test system: ACHN renal
# SNB-75 CNS = test system: SNB-75 CNS
# T-47D breast = test system: T-47D breast
# NCI-H226 lung = test system: NCI-H226 lung
# SF-539 CNS = test system: SF-539 CNS
# KM12 colon = test system: KM12 colon
# A549 NSCLC = test system: A549 NSCLC
# UO-31 renal = test system: UO-31 renal
# SK-MEL-2 melanoma = test system: SK-MEL-2 melanoma
# NCI/ADR-RES ovarian = test system: NCI/ADR-RES ovarian
# HCT-15 colon = test system: HCT-15 colon
# HT29 colon = test system: HT29 colon
# K-562 leukemia = test system: K-562 leukemia
# OVCAR-3 ovarian = test system: OVCAR-3 ovarian
# UACC-257 melanoma = test system: UACC-257 melanoma
# SK-MEL-28 melanoma = test system: SK-MEL-28 melanoma
# 786-0 renal = test system: 786-0 renal
# OVCAR-4 ovarian = test system: OVCAR-4 ovarian
# PC-3 prostate = test system: PC-3 prostate
# UACC-62 melanoma = test system: UACC-62 melanoma
# SK-MEL-5 melanoma = test system: SK-MEL-5 melanoma
# LOX IMVI melanoma = test system: LOX IMVI melanoma
# HCT-116 colon = test system: HCT-116 colon
# NCI-H522 lung = test system: NCI-H522 lung
# MDA-MB-231 breast = test system: MDA-MB-231 breast
# HOP-92 NSCLC = test system: HOP-92 NSCLC
# HL-60(TB) leukemia = test system: HL-60(TB) leukemia
smiles,measurement,setting,value
COc1cc(/C=C/c2cc(/C=C/c3ccc(O)c(OC)c3)n(C(=O)Cc3ccccc3)n2)ccc1O,GI50,OVCAR-5 ovarian,2770 nM
same,TGI,OVCAR-5 ovarian,80000 nM
same,GI50,MOLT-4 leukemia,464 nM
same,TGI,MOLT-4 leukemia,> 100000 nM
same,GI50,TK-10 renal,2580 nM
same,TGI,TK-10 renal,9090 nM
same,GI50,MDA-MB-435,218 nM
same,TGI,MDA-MB-435,587 nM
same,GI50,SNB-19 CNS,2430 nM
same,TGI,SNB-19 CNS,> 100000 nM
same,GI50,NCI-H460 lung,526 nM
same,TGI,NCI-H460 lung,10400 nM
same,GI50,DU-145 prostate,1480 nM
same,TGI,DU-145 prostate,8630 nM
same,GI50,CAKI-1 renal,730 nM
same,TGI,CAKI-1 renal,38400 nM
same,GI50,SK-OV-3 ovarian,690 nM
same,TGI,SK-OV-3 ovarian,2640 nM
same,GI50,RXF 393 renal,1140 nM
same,TGI,RXF 393 renal,3480 nM
same,GI50,M14 melanoma,399 nM
same,TGI,M14 melanoma,2640 nM
same,GI50,U251 CNS,1210 nM
same,TGI,U251 CNS,11200 nM
same,GI50,CCRF-CEM leukemia,333 nM
same,TGI,CCRF-CEM leukemia,> 100000 nM
same,GI50,OVCAR-8 ovarian,1850 nM
same,TGI,OVCAR-8 ovarian,16700 nM
same,GI50,HCC-2998 colon,2900 nM
same,TGI,HCC-2998 colon,11300 nM
same,GI50,SF-295 CNS,2010 nM
same,TGI,SF-295 CNS,6480 nM
same,GI50,RPMI-8226 leukemia,411 nM
same,TGI,RPMI-8226 leukemia,2240 nM
same,GI50,NCI-H23 lung,1560 nM
same,TGI,NCI-H23 lung,6590 nM
same,GI50,A498 renal,2410 nM
same,TGI,A498 renal,6930 nM
same,GI50,SN12C renal,1530 nM
same,TGI,SN12C renal,44500 nM
same,GI50,MALME-3M melanoma,644 nM
same,TGI,MALME-3M melanoma,4980 nM
same,GI50,BT-549 breast,758 nM
same,TGI,BT-549 breast,3930 nM
same,GI50,SW-620 colon,684 nM
same,TGI,SW-620 colon,10900 nM
same,GI50,MCF7 breast,333 nM
same,TGI,MCF7 breast,2520 nM
same,GI50,ACHN renal,419 nM
same,TGI,ACHN renal,29200 nM
same,GI50,SNB-75 CNS,545 nM
same,TGI,SNB-75 CNS,3450 nM
same,GI50,T-47D breast,1330 nM
same,TGI,T-47D breast,5170 nM
same,GI50,NCI-H226 lung,2670 nM
same,TGI,NCI-H226 lung,9880 nM
same,GI50,SF-539 CNS,475 nM
same,TGI,SF-539 CNS,3910 nM
same,GI50,KM12 colon,461 nM
same,TGI,KM12 colon,> 100000 nM
same,GI50,A549 NSCLC,2800 nM
same,TGI,A549 NSCLC,16600 nM
same,GI50,UO-31 renal,466 nM
same,TGI,UO-31 renal,4310 nM
same,GI50,SK-MEL-2 melanoma,516 nM
same,TGI,SK-MEL-2 melanoma,2510 nM
same,GI50,NCI/ADR-RES ovarian,792 nM
same,TGI,NCI/ADR-RES ovarian,10900 nM
same,GI50,HCT-15 colon,388 nM
same,TGI,HCT-15 colon,3790 nM
same,GI50,HT29 colon,1660 nM
same,TGI,HT29 colon,4500 nM
same,GI50,K-562 leukemia,434 nM
same,TGI,K-562 leukemia,> 100000 nM
same,GI50,OVCAR-3 ovarian,1120 nM
same,TGI,OVCAR-3 ovarian,5270 nM
same,GI50,UACC-257 melanoma,2680 nM
same,TGI,UACC-257 melanoma,11500 nM
same,GI50,SK-MEL-28 melanoma,1210 nM
same,TGI,SK-MEL-28 melanoma,15100 nM
same,GI50,786-0 renal,916 nM
same,TGI,786-0 renal,4530 nM
same,GI50,OVCAR-4 ovarian,1110 nM
same,TGI,OVCAR-4 ovarian,6390 nM
same,GI50,PC-3 prostate,915 nM
same,TGI,PC-3 prostate,4340 nM
same,GI50,UACC-62 melanoma,883 nM
same,TGI,UACC-62 melanoma,4760 nM
same,GI50,SK-MEL-5 melanoma,532 nM
same,TGI,SK-MEL-5 melanoma,3170 nM
same,GI50,LOX IMVI melanoma,609 nM
same,TGI,LOX IMVI melanoma,9020 nM
same,GI50,HCT-116 colon,491 nM
same,TGI,HCT-116 colon,6760 nM
same,GI50,NCI-H522 lung,323 nM
same,TGI,NCI-H522 lung,1490 nM
same,GI50,MDA-MB-231 breast,1450 nM
same,TGI,MDA-MB-231 breast,20900 nM
"CSCC[C@H](NC(=O)[C@H](CC(C)C)NC(=O)[C@H](Cc1c[nH]cn1)NC(=O)CNC(=O)C1N(C(=O)[C@@H](C)NC(=O)[C@H](Cc2c[nH]c3ccccc23)NC(=O)[C@H](CCC(N)=O)NC(=O)[C@@H](N)CC(N)=O)CSC1(C)C)C(N)=O (stereo partly specified) (H-NQW[dA][ξThz(5,5-Me2)]GHLM-NH2)",TGI,NCI-H23 lung,> 25000 nM
same,TGI,NCI-H226 lung,> 25000 nM
same,TGI,UACC-257 melanoma,> 25000 nM
same,TGI,HOP-92 NSCLC,> 25000 nM
COc1cc(OC)cc(-c2ccc(-c3ccc(C(=N)N)cc3)s2)c1,GI50,DU-145 prostate,1770 nM
same,TGI,DU-145 prostate,3240 nM
same,GI50,HL-60(TB) leukemia,1900 nM
same,TGI,HL-60(TB) leukemia,3740 nM
